Series [1] in a line: Kinetic parameter, Km on human hepatic microsomes. Conditions: liver microsomes.
The nature of series [2]: in vivo. Particulars: mouse, 24 mg/kg.
Description: Therapeutic index (24 mg/kg) in mice (in vivo)
The nature of series [3]: Lethal Dose in mice (in vivo). Particulars: mouse.

Molecules are shown by their SMILES.

The Km is the concentration of substrate that gives half-maximal velocity. As a reminder, the LD50 is the dose at which mortality reaches 50%. Read a high LD50 as lower toxicity.

Take `[2H]c1c([2H])c(C(C)C)c(O)c(C(C)C)c1[2H]` [TRIDEUTERATED PROPOFOL]: in series [1], the Km worked out at 16.4 µM. The selectivity ratio in series [2] amounted to 2.7. For the same compound, the LD50 in series [3] came to 35 mg/kg.

Turning to `[2H]c1cc(C(C)C)c(O)c(C(C)C)c1` [MONODEUTERATED PROPOFOL], in series [1], the Km was found to be 16.7 µM. In addition, in series [2], the selectivity ratio was found to be 3. For the same compound, the LD50 in series [3] was determined as 39 mg/kg.

Turning to `CC(C)c1cccc(C(C)C)c1O` [PROPOFOL], the Km in series [1] came out at 12.3 µM. Also, in series [2], the selectivity ratio was 2.1. Also, the LD50 in series [3] worked out at 32 mg/kg.

Values taken from ChEMBL document CHEMBL1135696, “Isotopic effect study of propofol deuteration on the metabolism, activity, and toxicity of the anesthetic” (J Med Chem, 2002).
